In general, EC50 refers to the concentration at which the effect is half-maximal.

Among the data in ChEMBL document CHEMBL3046273, “Molecular cloning and pharmacological characterisation of a tyramine receptor from the rice stem borer, Chilo suppressalis (Walker)” (Pest Manag Sci, 2013) are fold change (FC), Activity and EC50 values, retold here.

Assay type in all cases: functional, cell-based
The target in test [1] is T1, TyR1 (Chilo suppressalis) (UniProt H9TVJ1).
T1 sequence (whole entry): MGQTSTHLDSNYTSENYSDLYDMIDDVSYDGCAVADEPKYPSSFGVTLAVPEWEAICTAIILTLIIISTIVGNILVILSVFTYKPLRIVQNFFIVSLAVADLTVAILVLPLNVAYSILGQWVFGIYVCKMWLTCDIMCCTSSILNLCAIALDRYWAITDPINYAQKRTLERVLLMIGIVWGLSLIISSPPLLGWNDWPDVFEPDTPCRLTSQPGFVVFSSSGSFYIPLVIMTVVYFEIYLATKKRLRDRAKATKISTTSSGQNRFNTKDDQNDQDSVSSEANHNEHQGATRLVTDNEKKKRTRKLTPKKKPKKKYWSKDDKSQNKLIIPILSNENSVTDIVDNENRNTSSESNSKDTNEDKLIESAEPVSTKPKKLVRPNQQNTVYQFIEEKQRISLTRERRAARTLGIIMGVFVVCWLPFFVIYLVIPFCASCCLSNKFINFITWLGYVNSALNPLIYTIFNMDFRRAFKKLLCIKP
The test can be described thus: Agonist activity at Chilo suppressalis (rice stem borer) tyramine receptor TyR1 expressed in HEK293 cells assessed as increase in forskolin-induced cAMP accumulation at 10 uM incubated for 20 min relative to untreated control. For orientation: cAMP levels reflect the balance of adenylyl cyclase and phosphodiesterase activity.

The target of test [2] is T1, TyR1 (Chilo suppressalis). In words: Agonist activity at Chilo suppressalis (rice stem borer) tyramine receptor TyR1 expressed in HEK293 cells assessed as reduction in forskolin-induced cAMP accumulation at < 1 umol incubated for 20 min.
The target in test [3] is T1, TyR1 (Chilo suppressalis). In words: Agonist activity at Chilo suppressalis (rice stem borer) tyramine receptor TyR1 expressed in HEK293 cells assessed as reduction in forskolin-induced cAMP accumulation at 10 uM incubated for 20 min. Further details: scale not given: the % may be the effect or the level left.
In test [4] the target is T1, TyR1 (Chilo suppressalis). The test can be described thus: (§1) Agonist activity at Chilo suppressalis (rice stem borer) tyramine receptor TyR1 expressed in HEK293 cells assessed as reduction in forskolin-induced cAMP accumulation incubated for 20 min.
Another test deals with T2, TyR1 (Chilo suppressalis, UniProt H9TVJ1).
T2 sequence (H9TVJ1 whole entry): T1 sequence (whole entry)
The test is described as §1.

The structures appear in SMILES notation. Structures can show the parent of a compound that is named as a salt. Calls of active or inactive are those of the source. The rule behind the calls is not given here.

With `NCCc1ccc(O)c(O)c1`, in test [1], the fold change (FC) was 2.
Consider `Cc1ccc(/N=C/N(C)/C=N/c2ccc(C)cc2C)c(C)c1`, for which the outcome in test [2] was inactive. In test [3], the result was Active.
Turning to `NCC(O)c1ccc(O)cc1` (racemic) [OCTOPAMINE HYDROCHLORIDE], the results for the Activity result in test [4] and in test [3] were “Dose-dependent effect” and 56%, respectively. Also, the EC50 at TyR1 stood at 978 nM.
Take `c1ccc2c(CC3=NCCN3)cccc2c1`: the result in test [3] was inactive.
Same read-out and setting: then `Clc1cccc(Cl)c1NC1=NCCN1`, with “Active”; and `Cc1cc(Cl)ccc1/N=C/N(C)C`, with “inactive”.
As to `NCCc1c[nH]c2ccc(O)cc12`, the result in test [1] and in test [3] was inactive.
Take `NCCc1ccc(O)cc1` [TYRAMINE HYDROCHLORIDE]: the values for the Activity entry in test [4] and in test [3] were “Dose-dependent effect” and 75%, respectively. In addition, the concentration giving a half-maximal response (EC50) on TyR1 was found to be 369 nM.
